Laboratory results reported in patent publication US11001562B2, “Near-infrared fluorescent nerve contrast agents and methods of use thereof” (Beth Israel Deaconess Medical Center, priority 2013, dated 2021).
“Also recorded” adds a separate entry of the source.

What was measured:
[1] = Optical property measurements (absorbance and fluorescence spectra); format: physicochemical; conditions: 100% FBS with 50 mM HEPES, pH 7.4, 37° C.
Method: Absorbance and fluorescence spectra were obtained at a concentration of […] in 100% FBS supplemented with 50 mM HEPES, pH 7.4. B) Optical properties of Oxazine 4 were measured in PBS (pH 7.4), FBS (pH 7.4), MeOH, and DMSO.
Oxazine derivatives were obtained from Fisher Scientific Inc. (Pittsburgh, Pa.) or Sigma-Aldrich (Saint Louis, Mo.), and BMB was synthesized as described previously (25). Optical measurements were performed at 37° C. in phosphate-buffered saline (PBS), pH 7.4 or 100% fetal bovine serum (FBS) buffered with 50 mM HEPES, pH 7.4. Absorbance and fluorescence emission spectra were measured using fiber optic HR2000 absorbance (200-1100 nm) and USB2000FL fluorescence (350-1000 nm) spectrometers (Ocean Optics, Dunedin, Fla.). NIR excitation was provided by a 532 nm green laser pointer (Opcom Inc., Xiamen, China) set to 5 mW and coupled through a […] core diameter, NA 0.22 fiber (Fiberguide Industries, Stirling, N.J.). In silico calculation of the partition coefficient (log D at pH 7.4) was calculated using Marvin and J Chem calculator plugins (ChemAxon, Budapest, Hungary). Chemical similarities were calculated by Instant J Chem 6.04 using “Chemical Hashed Fingerprint” with the Normalized Euclidean dissimilarity screening configuration (ChemAxon).
All optical measurements were performed at 37° C. in phosphate-buffered saline (PBS), pH 7.4, 100% fetal bovine serum (FBS) buffered with 50 mM HEPES, pH 7.4, methanol (MeOH), or dimethyl sulfoxide (DMSO). Absorbance and fluorescence emission spectra of the series of NIR fluorophores were measured using fiber optic HR2000 absorbance (200-1100 nm) and USB2000FL fluorescence (350-1000 nm) spectrometers (Ocean Optics, Dunedin, Fla.). Excitation light was provided by a 532 nm green laser pointer (Opcom Inc., Xiamen, China) set to 5 mW and coupled through a 300 μm core diameter, NA 0.22 fiber (Fiberguide Industries, Stirling, N.J.). In silico calculation of the partition coefficient (log D at pH 7.4) was calculated using Marvin and J Chem calculator plugins (ChemAxon, Budapest, Hungary).

[2] = tested on: rat brachial plexus and sciatic nerves; assay: In vivo nerve-specificity screening with FLARE imaging
Description: The dual-NIR channel FLARE^a imaging system has been described in detail previously (26-28). In this study, a 670 nm excitation was used at a fluence rate of 4 mW/cm^2, with white light (400-650 nm) at 40,000 1×. Color and NIR fluorescence images were acquired simultaneously with custom software at rates up to 15 Hz over a 15 cm diameter field of view. A pseudo-colored lime green was used for NIR fluorescence in the color-NIR merged images. The imaging system was positioned at a distance of 18 inches from the surgical field.
(§1) Initial in vivo screening occurred in rats based on our previous study of BMB (Supplementary Methods) (25). For kinetic and dose-response studies, 50-400 nmol (0.8-6.3 mg/kg) of Oxazine 4 was injected intravenously into mice and measurements taken over 24 h. Control images were acquired prior to injecting NIR fluorophores. The fluorescence signal in nervous tissues and signal-to-background ratio (SBR) compared to neighboring muscle (Mu) were obtained over the period of imaging. For the large animal study, the optimal dose found in mice (200-400 nmol per mouse) was used in pigs by scaling to body surface area (29, 30).
Sprague-Dawley (SD) male rats weighing 250-300 g were purchased from Charles River Laboratories (Wilmington, Mass.). BMB, Oxazine 1, Oxazine 4, Oxazine 170, Oxazine 750, and Rhodamine 800 were initially screened to investigate nerve specificity in rats. For the initial screening, we administered a relatively high dose (2 mg/kg; 1 μmol) of each fluorophore intravenously. 4 h after injection, brachial plexus (BP) and sciatic nerve (SN) were imaged using the intraoperative FLARE^a system for in vivo nerve-specific fluorophores screening.

[3] = tested on: brachial plexus (BP) and sciatic nerves (SN) of CD-1 mice; assay: Kinetics and dose-response of nerve targeting in small animals; format: in vivo, mouse
Method: 100 nmol (1.6 mg/kg) of Oxazine was injected intravenously into CD-1 mice, and SBR (BP/Mu) and SBR (SN/Mu) were measured at different time points (T=0, 1, 4, 6, 12, and 24 h). Arrowheads indicate fluorescence signals in nerve bundles. SG=salivary glands; Mu=muscle. Scale bars=1 cm. All NIR fluorescence images have identical exposure times (500 msec) and normalizations. B) Dose-response curve of SBR (mean±SEM) for BP and SN. 0, 50, 100, 200, and 400 nmol of Oxazine 4 were injected intravenously into CD-1 mice, and SBR (BP/Mu) and SBR (SN/Mu) were measured at 4 h post-injection. Arrowheads indicate fluorescence signals in nerve bundles. SG=salivary glands; Mu=muscle. Scale bars=1 cm. All NIR fluorescence images have identical exposure times (500 msec) and normalizations.
as §1
The fluorescence intensity (FI) and background (BG) intensity of a region of interest (ROI) over each nerve/tissue were calculated and quantified using custom FLARE^a software. The FI of the RLN, BP, and SN at the optimal dose and time point were quantified to measure tissue-specific targeting. Adjacent tissues such as trachea (Tr), thyroid (Th), tracheoesophageal groove (TEG), muscle (Mu), and adipose tissue (Ad) were used as background to calculate the SBR of RLN, BP, and SN in pigs. Statistical analysis was carried out using a one-way ANOVA followed by Tukey's multiple comparisons test. Results were presented as mean±S.D. and curve fitting was performed using Prism version 4.0a software (GraphPad, San Diego, Calif.).

[4] = comparison of structures in discussion

## CC/N=c1/cc2oc3cc(NCC)c(C)cc3nc-2cc1C [Oxazine 4]
[1]
  Abs (peak absorbance): 616 nm
  Em (peak emission): 635 nm
  λ (extinction coefficient): 143,000 M^−1cm^−1
[2]; SD rats, 2 mg/kg (1 μmol) iv, 4 h after injection, brachial plexus and sciatic nerve, 2 mg/kg
  nerve-specific fluorescence signal in vivo: highest nerve-specific fluorescence signal; also recorded: higher nerve-specific fluorescence signal
[2]; SD rats, 2 mg/kg (1 μmol) iv, 4 h after injection, 2 mg/kg
  background (muscle and adipose tissue) fluorescence signal in vivo: lowest background; also recorded: lower background
[2]; [4]
  adipose signal (discussion summary): moderate adipose
  nerve signal (discussion summary): high nerve signal
[3]; 100 nmol (1.6 mg/kg) iv
  time of highest SBR post-intravenous injection: 4 h
[3]; 100 nmol (1.6 mg/kg) iv, 4 h post-injection, BP and SN
  highest SBR (nerve/muscle): ≈ 3.0
[3]; 100 nmol iv, 1 h
  SBR at 1 h post-injection: low
[3]; 100 nmol iv, 24 h
  fluorescence signal in nervous tissues at 24 h post-injection: decayed at this time point to pre-injection levels
[3]; 50-400 nmol per mouse (0.8-6.3 mg/kg), 4 h post-injection
  dose dependence of fluorescence signals in BP and SN: proportional to the injected dose
[3]; iv, 4 h post-injection
  optimal dose: 200 nmol
